Our source for the GI50 and TGI values is PubChem BioAssay (NCI).

“And” between values parts separate entries of the source, which are not always exact repeats. Identical values can stand only once.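 Test compounds were applied to cells in 96-well plates for 48 hours at 5 doses. GI50 is the concentration that inhibits growth by half. Definition used: TGI = concentration required for complete inhibition of growth.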

What all share (test): NCI anticancer screen, dose series, 48 h
Assay [1] deals with MCF7 breast.
Assay [2] has as its system OVCAR-4 ovarian.
In assay [3] the test system is EKVX NSCLC.
Assay [4] has as its system PC-3 prostate.
For assay [5], the system named is SNB-75 CNS.
Assay [6] deals with SF-295 CNS.
Assay [7] has as its system 786-0 renal.
The subject of assay [8] is HOP-92 NSCLC.
Assay [9] deals with BT-549 breast.
Assay [10] has as its system MALME-3M melanoma.

`CC(C)=CCC(OC(=O)C=C(C)C)C1=CC(=O)c2c(O)ccc(O)c2C1=O` (stereo not drawn): the GI50 in assay [1] was 2090 nM and 877 nM; in [2], 1.73 µM; in assay [3], 2280 nM; in assay [4], 1550 nM; in assay [5], 3870 nM; in assay [6], 2.15 µM. Besides, the GI50 in assay [7] is 2590 nM; in assay [8], 365 nM; in [9], 590 nM; in assay [10], 694 nM. For the same molecule, the TGI in assay [1] was 7.86 µM and 2.93 µM; in assay [2], 4.16 µM and 1.48 µM; in assay [3], 6.2 µM and 2.2 µM; in assay [4], 8.74 µM; in assay [5], 16.3 µM and 13.7 µM; in [6] it was 20.9 µM and 6.13 µM. Further, the TGI in assay [7] is 6.86 µM; in [8], 1.38 µM and 1.29 µM; in assay [9], 1.98 µM; in assay [10], 3.09 µM and 1.07 µM.
For `O=C(NCCc1ccccn1)OCc1nc2nc(Cl)nc(N3CCOCC3)c2[nH]1`, the GI50 in [1] was 1590 nM; in assay [2], 1.7 µM; in [3] it was 2930 nM; in assay [4], 1700 nM; in [5], 2420 nM; in [6] it was 4.96 µM. For the same molecule, the GI50 is 1750 nM in [7], 1150 nM in [8], 2220 nM in assay [9] and 1620 nM in [10]. Also, the TGI worked out at 5.17 µM in assay [1]; 3.85 µM in assay [2]; 11.3 µM in assay [3]; 3.73 µM in [4]; 15.5 µM in assay [5]; 17.4 µM in [6]. Also, the TGI was determined as 3.52 µM in assay [7], 3.81 µM in assay [8], 6.83 µM in assay [9] and 3.1 µM in assay [10].
For the molecule `Cc1nc(Nc2ccccn2)sc1C(=O)/C=C/c1ccc(Cl)cc1`, the GI50 in assay [1] was 344 nM; in [2], 0.778 µM; in assay [3], 846 nM; in assay [4], 368 nM; in [5], 296 nM; in [6], 0.308 µM. Besides, the GI50 was 549 nM in assay [7], 1210 nM in assay [8], 344 nM in assay [9] and 734 nM in [10]. Moreover, the TGI was above 100 µM in [1]; above 100 µM in [2]; above 100 µM in assay [3]; above 100 µM in assay [4]; 24.7 µM in [5]; 23 µM in assay [6]. In addition, the TGI in assay [7] is above 47.2 µM; in assay [8], 31.4 µM; in assay [9] it was 8.64 µM; in assay [10] it was 43.8 µM.
On to `CC1=Nc2ccccc2/C1=C\c1c(C)[nH]c2ccccc12`, for which the TGI was determined as 18.3 µM in assay [1]; 47.1 µM in assay [2]; 29.7 µM in assay [3]; 39.2 µM in assay [4]; 71.5 µM in assay [5]; 43 µM in assay [6]. The TGI in [7] worked out at 25.8 µM; in assay [8], 17.4 µM; in assay [9], 15.1 µM; in assay [10], 30.5 µM.
`O=C1CC(c2[nH]nc3ccccc23)C(=O)N1c1ccccc1` (stereo not drawn): the TGI in [1], in assay [2], in assay [3], in [4], in [5] and in [6] was above 100 µM each time. Further, the TGI in assay [7], in assay [8], in assay [9] and in [10] was above 100 µM throughout.
In the case of `C=C1CCC2(C#N)[C@H]3[C@H](CC[C@@H]2C)[C@@H](C)C[C@@H](CC(C)(C)NC(=O)CN2CCC2=O)[C@H]13` (stereo partly drawn), the GI50 in [1] is 4580 nM; in [2], 8.9 µM; in assay [3], 6420 nM; in [4] it was 4700 nM; in assay [5], 1570 nM; in [6], 3.27 µM. The GI50 is 13700 nM in assay [7], 3120 nM in assay [8], 2960 nM in [9] and 8560 nM in assay [10]. In addition, the TGI is 23.4 µM in assay [1]; above 100 µM in assay [2]; above 100 µM in assay [3]; 36.6 µM in assay [4]; 10.2 µM in [5]; 13.4 µM in [6]. In addition, the TGI in assay [7] amounted to 37.8 µM; in [8], 27.5 µM; in assay [9] it was 17.3 µM; in assay [10], 23.9 µM.
Consider `CCN(c1cc(-c2ccc(CN3CCOCC3)cc2)cc(C(=O)NCc2c(C)cc(C)[nH]c2=O)c1C)C1CCOCC1`, for which the GI50 in [1] is 24200 nM; in [2] it was 25.9 µM; in assay [3] it was 33600 nM; in assay [4], 32000 nM; in assay [5], 16700 nM; in [6], 26.2 µM. Besides, the GI50 in [7] is 17100 nM; in assay [8], 16800 nM; in assay [9], 17300 nM; in [10] it was 14400 nM. For the same molecule, the TGI in assay [1] was above 100 µM; in assay [2], 97.2 µM; in assay [3] it was above 100 µM; in assay [4], above 100 µM; in assay [5] it was above 91.9 µM; in assay [6] it was 71.3 µM. In addition, the TGI is 40.7 µM in [7], above 57 µM in [8], 37.4 µM in assay [9] and 28.9 µM in [10].
Turning to `COc1cc2c(cc1O)CC1c3c(cc(O)c(OC)c3-2)CCN1C` (stereo not drawn), the TGI in assay [1], in assay [2], in [3], in assay [4], in [5] and in assay [6] was above 100 µM in each case. Besides, the TGI in assay [7], in [8], in [9] and in assay [10] was above 100 µM throughout.
Consider `c1ccc2c(-c3nc(-c4c[nH]c5ccncc45)cs3)c[nH]c2c1`, for which the GI50 in assay [1] is 1430 nM; in [2] it was 2.96 µM; in [3], 1780 nM; in assay [4] it was 1840 nM; in [5] it was 10300 nM; in assay [6], 1.58 µM. Further, the GI50 in assay [7] is 1890 nM; in assay [8], 1440 nM; in assay [9], 8820 nM; in [10], 1650 nM. The TGI in assay [1] was 3.16 µM; in assay [2] it was 11.7 µM; in assay [3] it was 4.61 µM; in assay [4], 6.25 µM; in assay [5], 22.2 µM; in assay [6], 3.2 µM. Further, the TGI in assay [7] worked out at 3.44 µM; in assay [8], 3.28 µM; in [9], 21.3 µM; in assay [10] it was 3.13 µM.
As for `Cc1nc(Nc2cccnc2)sc1C(=O)/C=C/c1ccc(Cl)cc1`, the GI50 in assay [1] was 1920 nM; in assay [2] it was 5.14 µM; in assay [3], 6990 nM; in assay [4], 3270 nM; in assay [5], 2820 nM; in [6] it was 2.79 µM. Moreover, the GI50 was 1950 nM in assay [7], 3230 nM in [8], 2200 nM in assay [9] and 3300 nM in assay [10]. The TGI in assay [1] was 10.7 µM; in [2], above 100 µM; in assay [3], above 100 µM; in [4], 12 µM; in assay [5], 14.7 µM; in assay [6] it was 19.1 µM. For the same molecule, the TGI in assay [7] came to 6.48 µM; in [8], 15.2 µM; in [9], 7.22 µM; in assay [10], 23.6 µM.
Turning to `Cc1nc2c(n1C)C(=O)c1ccccc1C2=O`, the GI50 in [1] was 46100 nM; in assay [2], 43.5 µM; in assay [3] it was 60400 nM; in [4] it was 63900 nM; in [5] it was above 100000 nM; in assay [6] it was 10.8 µM. The GI50 was above 100000 nM in [7], above 100000 nM in [8], above 100000 nM in assay [9] and 4740 nM in assay [10]. In addition, the TGI is above 100 µM in [1]; above 100 µM in [2]; above 100 µM in assay [3]; above 100 µM in assay [4]; above 100 µM in assay [5]; 72.3 µM in assay [6]. Also, the TGI is above 100 µM in assay [7], above 100 µM in assay [8], above 100 µM in assay [9] and 28.5 µM in [10].
With `COC(=O)C1C(O)C(C)C(O)C(C)C=C(C)C2=C3C(=C(C)C(=O)c4c(O)c(c(C)c(OC(C)=O)c43)NC(=O)C(C)=C/C=C\C(C)C(O)C(C)C1O)OCO2` (stereo not drawn), the TGI in assay [1] is 58.7 µM; in assay [2], above 100 µM; in [3], above 100 µM; in assay [4], above 100 µM; in assay [5] it was 92.9 µM; in [6], above 100 µM. In addition, the TGI is above 100 µM in assay [7], above 100 µM in [8], 39.2 µM in assay [9] and 38.5 µM in assay [10].
Regarding `O=C1CCC(N2C(=O)c3ccccc3C2=O)C(=O)N1` (stereo not drawn), the TGI in [1], in assay [2], in assay [3], in [4], in assay [5] and in assay [6] was above 100 µM throughout. Further, the TGI in assay [7], in assay [8], in [9] and in [10] was above 100 µM throughout.
As for `C1CC2CN(CCCN3CCOCC3)C(C1)O2` (stereo not drawn), the TGI in [1], in assay [2], in assay [3], in [4], in [5] and in [6] was above 100 µM each time. The TGI in [7], in assay [8], in assay [9] and in [10] was above 100 µM throughout.
On to `O=P1(S)OC[C@H]2O[C@@H]3[C@H](F)[C@@H]2OP(O)(=S)OC[C@H]2O[C@H]([C@H](F)[C@@H]2O1)n1cnc2c(ncnc21)NC/C=C/CNc1ncnc2c1ncn23` (stereo partly drawn), for which the GI50 in [1] is above 100000 nM; in assay [2], 5.36 µM; in assay [3], above 100000 nM; in assay [4], above 100000 nM; in assay [5], above 79900 nM; in assay [6], above 100 µM. The GI50 in assay [7] and in [10] was above 100000 nM throughout. Besides, the TGI in assay [1], in assay [2], in assay [3], in assay [4], in assay [5] and in assay [6] was above 100 µM each time. For the same molecule, the TGI in assay [7], in assay [8], in assay [9] and in [10] was above 100 µM in each case.
In the case of `NN=C(CC(O)(C(F)(F)Cl)C(F)(F)Cl)CC(O)(C(F)(F)Cl)C(F)(F)Cl`, the TGI in assay [1], in assay [2], in [3], in [4], in assay [5] and in assay [6] was above 10 µM in each case. Moreover, the TGI in assay [7], in assay [8], in assay [9] and in assay [10] was above 10 µM each time.
For the molecule `Cc1ccc(S(=O)(=O)c2nc(-c3ccccc3)oc2S(C)=O)cc1` (stereo not drawn), the GI50 in assay [1] was 1210 nM; in assay [2] it was 1.91 µM; in assay [3] it was 1720 nM; in [4] it was 2030 nM; in assay [5], 2690 nM; in assay [6] it was 10 µM. Further, the GI50 in assay [7] is 1440 nM; in [8] it was 1380 nM; in [9], 1710 nM; in assay [10], 1700 nM. Also, the TGI worked out at 3.62 µM in assay [1]; 3.65 µM in [2]; 3.4 µM in assay [3]; 4.45 µM in assay [4]; 9.55 µM in assay [5]; 22.2 µM in assay [6]. Further, the TGI worked out at 2.82 µM in [7], 2.77 µM in assay [8], 3.37 µM in assay [9] and 3.47 µM in assay [10].
On to `O=C1/C(=C/c2ccccc2)CN(C(=O)CCN2CCCC2)C/C1=C\c1ccccc1`, for which the TGI in assay [1] came out at 2.63 µM; in assay [2], 4.78 µM; in [3], 7.15 µM; in assay [4] it was 2.42 µM; in assay [5] it was 13.5 µM; in assay [6] it was 2.6 µM. The TGI is 1.94 µM in assay [7], 14.8 µM in assay [8], 3.77 µM in assay [9] and 11.4 µM in assay [10].
